Article PMC7576996, “Antiparasitic Behavior of Trifluoromethylated Pyrazole 2-Amino-1,3,4-thiadiazole Hybrids and Their Analogues: Synthesis and Structure-Activity Relationship” (Frontiers in Pharmacology, 2020)

Assays:
[1] = tested on: promastigote form of Leishmania amazonensis; experiment: Antiproliferative assay, promastigote form of Leishmania amazonensis (XTT, 72 h); type: cell-based; conditions: for SI L-M, selectivity index (Macrophages CC50/L. amazonensis IC50): J774A1 vs promastigotes; for SI L-E, selectivity index (Epithelial CC50/L. amazonensis IC50): LLCMK2 vs promastigotes; for IC50: Leishmania amazonensis, promastigote form, 72 h, mean ± standard deviation, read-out: L. amazonensis IC50
Description: (§1) All the novel trifluoromethylated pyrazoles derivatives 2a–f, 3a–f, and 4a–f were evaluated against the promastigote form of L. amazonensis and the epimastigote form of T. cruzi. The results are reported as the concentration causing a 50% inhibition in cell growth (IC50). Additionally, the toxicity of compounds was evaluated against two different cell lines: epithelial cell LLCMK2 and macrophages J774A1. The antiproliferative and cytotoxic activities are shown in Table 2 , as well as the calculated selectivity index (SI).
(§2) 2.4. Antiproliferative activity
(§3) Promastigotes forms of Leishmania amazonensis (strain WHOM/ BR/75/JOSEFA) were
(§4) cultured in Warren medium (brain heart infusion, hemin, and folic acid; pH 7.4) supplemented with
(§5) 10% fetal bovine serum (FBS) at 25 °C. Epimastigote forms of Trypanosoma cruzi (Y strain) were
(§6) cultured in LIT medium (liver infusion tryptose; hemim, and folic acid; pH 7.4) supplemented with
(§7) Cytotoxicity activity was determined in LLCMK2 (epithelial cells of kidney of Macaca
(§8) mulatta) cells and J774A1 macrophages. LLCMK2 (epithelial cells of kidney of Macaca mulatta) cells
(§9) were cultured in Dulbecco’s modified Eagle’s medium (DMEM, pH 7.2) supplemented with 10% FBS
(§10) at 37 °C in a 5% CO2 atmosphere. J774A1 macrophages were cultured in RPMI-1640 (pH 7.2) medium
(§11) supplemented with 10% FBS at 37 °C in a 5% CO2 atmosphere.
(§12) 2.4.2. Dilution of compounds
(§13) Stock solutions of the compounds were prepared in DMSO and then diluted in the respective
(§14) medium. The groups (controls and treated) were tested with DMSO concentrations below 1%, with
(§15) 2.4.3. Antiproliferative assay
(§16) Promastigote forms (1 × 10^6 parasites/mL) were cultured in 96-well plates in the presence and
(§17) absence of different concentrations of compounds diluted in Warren medium supplemented with 10%
(§18) FBS and incubated for 72h. Epimastigote forms (1 × 10^6 parasites/mL) were cultured in 96 -well plates
(§19) in the presence and absence of different concentrations of compounds diluted in LIT medium
(§20) supplemented with 10% FBS and incubated for 96h. After treatment, the parasites were incu bated with
(§21) a solution of 2,3 -bis (2 -methoxy -4-nitro -5-sulfophenyl) -2H-tetrazolium -5-carboxanilide (XTT; 0.5
(§22) mg/mL) and phenazine methanesulfonate activator (PMS; 0.06 mg/mL) in PBS for 4h. Then, the
(§23) absorbance was read in a microplate reader (Bio Tek - Power Wave XS) at 450 nm. The percentage of
(§24) viable parasites was calculated in relation to the control in order to determine the concentration that
(§25) inhibits 50% of the protozoa (IC 50).
(§26) 2.4.4. Cytotoxicity assay
(§27) LLCMK2 cells (2.5 × 10^5 cells/mL) suspension was prepared in DMEM medium supplemented
(§28) with 10% FBS and added to 96-well plates. Then, the plates were incubated at 37 °C in a
(§29) CO2 atmosphere for 24h to obtain confluent cell growth. After incubation, cells were treated or not
(§30) with different concentrations of compounds diluted in DMEM for 72 h. Macrophage (5 × 10^5 cells/mL)
(§31) suspension was prepared in RPMI-1640 medium supplemented with 10% FBS and added to 96-well
(§32) plates. Then, the plates were incubated at 37 °C in a CO2 atmosphere for 24h to obtain confluent cell
(§33) growth. After incubation, cells were treated or not with different concentrations of compounds diluted
(§34) in RPMI-1640 for 48h. After treatment, medium was removed and cells were incubated with MTT (2
(§35) mg/mL) for 4h. Then, DMSO was added for solubilization of the formazan and analyzed with a reading

[2] = tested on: epimastigote form of Trypanosoma cruzi; experiment: Antiproliferative assay, epimastigote form of Trypanosoma cruzi (XTT, 96 h); type: cell-based; conditions: for SI T-M, selectivity index (Macrophages CC50/T. cruzi IC50): J774A1 vs epimastigotes; for SI T-E, selectivity index (Epithelial CC50/T. cruzi IC50): LLCMK2 vs epimastigotes; for IC50: Trypanosoma cruzi, epimastigote form, 96 h, mean ± standard deviation, read-out: T. cruzi IC50
Description: as §1, §2, §3, §4, §5, §6, §7, §8, §9, §10, §11, §12, §13, §14, §15, §16, §17, §18, §19, §20, §21, §22, §23, §24, §25, §26, §27, §28, §29, §30, §31, §32, §33, §34, §35

[3] = Cytotoxicity assay in J774A1 macrophages (MTT, 48 h); type: cell-based; conditions: mouse, pH 7.2, J774A1, 50% inhibition of growth
Description: as §1
(§36) 2.4. Antiproliferative activity […]
as §7, §8, §9, §10, §11, §12, §13, §14
(§37) 2.4.3. Antiproliferative assay […]
as §26, §27, §28, §29, §30, §31, §32, §33, §34, §35
(§38) microplate reader (BIO-TEK PowerWave XS spectrophotometer) at 392 nm. The percentage of viable
(§39) cells was calculated in relation to the control to determine the cytotoxic concentration to 50% of the […]

[4] = Cytotoxicity assay in LLCMK2 epithelial cells (MTT, 72 h); type: cell-based; conditions: Macaca mulatta, LLCMK2 kidney epithelial cells, pH 7.2, LLCMK2, 50% inhibition of growth
Description: as §1, §36, §7, §8, §9, §10, §11, §12, §13, §14, §37, §26, §27, §28, §29, §30, §31, §32, §33, §34, §35, §38, §39

Row | Structure (SMILES) | IC50 [2] [µM] | melting point [°C] | SI L-M, selectivity index (Macrophages CC50/L. amazonensis IC50) [1] | SI L-E, selectivity index (Epithelial CC50/L. amazonensis IC50) [1] | IC50 [1] [µM] | SI T-M, selectivity index (Macrophages CC50/T. cruzi IC50) [2] | SI T-E, selectivity index (Epithelial CC50/T. cruzi IC50) [2] | CC50 at 48 h [3] [µM] | CC50 at 72 h [4] [µM]
1 | Nc1nnc(-c2c(C(F)(F)F)nn(-c3ccccc3)c2-c2ccc(Br)cc2)s1 [4d, 4-[(2-amino)-1,3,4-thiadiazo-5-yl]-5-(4-Bromophenyl)-3-trifluoromethyl-1-phenyl-1H-pyrazole] | 26.7 ± 1.4 | 239.2 | 10.01 | 8.17 | 14.7 ± 0.9 | 5.51 | 4.50 | 147 ± 3.2 | 120 ± 2.5
2 | COc1ccc(-c2c(-c3nnc(N)s3)c(C(F)(F)F)nn2-c2ccccc2)cc1 [4f, 4-[(2-amino)-1,3,4-thiadiazo-5-yl]-3-trifluoromethyl-5-(4-methoxyphenyl)-1-phenyl-1H-pyrazole] | 22.8 ± 1.2 | 239.1 | 9.14 | 7.83 | 17.1 ± 1.6 | 6.86 | 5.87 | 156 ± 4.1 | 134 ± 5.1

The remaining compounds from weak to strong by IC50 [2], led by results:

Row | IC50 [2] [µM] | melting point [°C] | Structure (SMILES) | SI L-M, selectivity index (Macrophages CC50/L. amazonensis IC50) [1] | SI L-E, selectivity index (Epithelial CC50/L. amazonensis IC50) [1] | IC50 [1] [µM] | SI T-M, selectivity index (Macrophages CC50/T. cruzi IC50) [2] | SI T-E, selectivity index (Epithelial CC50/T. cruzi IC50) [2] | CC50 at 48 h [3] [µM] | CC50 at 72 h [4] [µM]
3 | 80.8 ± 3.7 | 155.2 to 156.1 | O=Cc1c(C(F)(F)F)nn(-c2ccccc2)c1-c1ccc([N+](=O)[O-])cc1 [compound 5, 3-trifluoromethyl-4-formyl-5-(4-nitrophenyl)-1-phenyl-1H-pyrazole] | 3.35 | 5.76 | 73.1 ± 2.8 | 3.03 | 5.22 | 245 ± 2.7 | 422 ± 12.3
4 | 41.6 ± 5.3 | 243.3 | Nc1nnc(-c2c(C(F)(F)F)nn(-c3ccccc3)c2-c2ccc(F)cc2)s1 [4b, 4-[(2-amino)-1,3,4-thiadiazo-5-yl]-3-trifluoromethyl-5-(4-fluorophenyl)-1-phenyl-1H-pyrazole] | 6.17 | 3.63 | 40.4 ± 3.2 | 5.99 | 3.52 | 249 ± 6.2 | 146 ± 5.4
5 | 40.5 ± 3.1 | 224.9 | Nc1nnc(-c2c(C(F)(F)F)nn(-c3ccccc3)c2-c2ccc(Cl)cc2)s1 [4c, 4-[(2-amino)-1,3,4-thiadiazo-5-yl]-5-(4-chlorophenyl)-3-trifluoromethyl-1-phenyl-1H-pyrazole] | 10.67 | 9.68 | 36.1 ± 2.8 | 9.51 | 8.63 | 385 ± 5.8 | 350 ± 6.1
